This passage reports IC50 results from PubChem BioAssay AID1645862 (Buhrlage Lab, Dana-Farber Cancer Institute and Novartis …, 2021).

pIC50: −log10 of the molar value. Calls of active or inactive are those of the source. How the calls were made is not given here.

The target of the experiment is Ubiquitin carboxyl-terminal hydrolase 8 (Homo sapiens) (UniProt P40818). Briefly: Ubiquitin-specific protease 8 inhibitors, concentration-effect, biochemical, validation of initial actives (AID 1645862).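 Further: potency reflects inhibition of USP8 cleavage of a ubiquitin rhodamine substrate.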 As to conditions: recombinant USP8 deubiquitinase activity assay.
Sequence of Ubiquitin carboxyl-terminal hydrolase 8 (Homo sapiens) (P40818 whole entry, looked up): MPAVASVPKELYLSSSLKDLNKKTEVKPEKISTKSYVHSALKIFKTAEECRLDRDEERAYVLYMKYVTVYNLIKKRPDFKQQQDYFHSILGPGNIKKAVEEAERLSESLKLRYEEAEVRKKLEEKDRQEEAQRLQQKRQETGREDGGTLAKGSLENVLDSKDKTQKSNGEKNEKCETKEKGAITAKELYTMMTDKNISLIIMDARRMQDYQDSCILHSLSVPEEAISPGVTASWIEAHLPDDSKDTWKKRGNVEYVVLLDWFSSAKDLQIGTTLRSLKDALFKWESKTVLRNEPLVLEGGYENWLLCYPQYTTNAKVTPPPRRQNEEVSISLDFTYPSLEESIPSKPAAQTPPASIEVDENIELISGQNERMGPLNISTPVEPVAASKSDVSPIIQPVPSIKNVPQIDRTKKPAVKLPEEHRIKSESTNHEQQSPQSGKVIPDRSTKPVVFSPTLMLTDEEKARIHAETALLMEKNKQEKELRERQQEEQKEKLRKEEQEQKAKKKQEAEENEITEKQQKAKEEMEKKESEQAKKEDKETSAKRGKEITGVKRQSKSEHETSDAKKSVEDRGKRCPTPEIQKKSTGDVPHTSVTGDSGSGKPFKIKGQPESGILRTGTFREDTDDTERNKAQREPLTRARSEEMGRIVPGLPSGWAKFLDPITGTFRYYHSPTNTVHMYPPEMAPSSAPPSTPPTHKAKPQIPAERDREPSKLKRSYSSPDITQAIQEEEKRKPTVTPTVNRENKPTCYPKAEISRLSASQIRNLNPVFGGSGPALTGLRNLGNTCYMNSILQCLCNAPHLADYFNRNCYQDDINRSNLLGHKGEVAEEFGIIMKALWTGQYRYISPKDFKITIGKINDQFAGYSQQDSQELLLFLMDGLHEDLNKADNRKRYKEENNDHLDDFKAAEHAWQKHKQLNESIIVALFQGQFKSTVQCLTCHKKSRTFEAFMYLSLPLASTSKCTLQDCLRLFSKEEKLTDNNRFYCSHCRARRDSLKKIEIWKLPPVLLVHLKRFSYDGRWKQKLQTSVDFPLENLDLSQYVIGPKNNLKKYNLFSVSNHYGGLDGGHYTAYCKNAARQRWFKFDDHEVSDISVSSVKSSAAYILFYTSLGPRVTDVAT

Regarding `COc1ccc(-c2onc(C)c2C)cc1S(=O)(=O)NCc1ccc(F)cc1`, the IC50 is > 40 µM (inactive). On to `Cc1ccc(S(=O)(=O)Nc2ccccc2C(=O)Nc2nc3ccc(Br)cc3s2)cc1`, for which the negative logarithm of the IC50 (pIC50) was 4.72. With `COc1cccc(NC(=O)c2cn(-c3cc(N4CCCC4)ncn3)cn2)c1`, the IC50 was > 40 µM (inactive).

As to `O=C(c1cc(S(=O)(=O)Nc2ccc(Cl)cc2)ccc1Cl)N1CCCc2ccccc21`, the IC50 is > 40 µM (inactive). On the same count and under the same terms, to `CC(C)=CCc1c2c(c3occ(-c4ccc(O)cc4)c(=O)c3c1O)C=CC(C)(C)O2` belongs > 40 µM (inactive); to `CC(NC(=O)c1ccccc1)c1nc2ccccc2n1CC(=O)Nc1ccc(OC(F)(F)F)cc1` (configuration not stated), > 40 µM (inactive). Still for that read-out and setting: to `COc1ccc(OC)c2c(C)cc(N3CC(C)CC(C)C3)nc12` (configuration not stated) belongs > 40 µM (inactive); to `COc1ccc2cc(C(=O)N3CCC(C(C)C(=O)NCc4cccc(F)c4)CC3)[nH]c2c1` (configuration not stated), > 40 µM (inactive); to `COc1cccc(C(=O)Nc2ccc(SC(C(=O)Nc3ccccc3)c3ccccc3)cc2)c1` (configuration not stated), > 40 µM (inactive). Regarding `CCCCCCCCCc1cc(OC(=O)c2c(CCCCCCCCC)cc(O)cc2O[C@@H]2O[C@H](CO)[C@@H](O)[C@H](O)[C@H]2O)cc(O)c1C(=O)O`, the pIC50 is 5.21. Regarding `COc1ccccc1/C=C/C(=O)NC(Cc1ccccc1)c1nc2ccccc2[nH]1` (configuration not stated), the IC50 is > 40 µM (inactive).

Take `CCCCCCCCCC(CCCCCCCCCC(=O)O)O[C@H]1O[C@@H](COC(C)=O)[C@H](O)[C@@H](OC(=O)CC(=O)O)[C@H]1O` (some centres not stated): the IC50 was > 40 µM (inactive). Same read-out and setting: to `Cc1ccc(-n2nc(C)c3c2NC(=O)CC3C(=O)c2cc3ccccc3o2)cc1` (configuration not stated) belongs > 40 µM (inactive); to `Cc1ccccc1NC(=O)Nc1ccccc1OCc1cc(=O)n2cccc(C)c2n1`, > 40 µM (inactive).

With `O=C(Cn1cnc(-c2noc(-c3cccc(F)c3)n2)c1)Nc1ccccc1`, the IC50 was > 40 µM (inactive). With `Cc1noc(-c2cc(=O)n(CC(=O)NCc3ccccc3F)c3ccccc23)n1`, the IC50 was > 40 µM (inactive). Same read-out and setting: in the case of `CC(=O)CSc1nc2sc3c(c2c(=O)n1-c1ccccc1)CCCC3` it was > 40 µM (inactive). On to `CC1OC2CC(O)C1(O)C1=C2C(O)=C(C(N)=O)C(=N)C1=O` (configuration not stated), for which the negative logarithm of the IC50 (pIC50) is 5.81. Consider `O=C(COC(=O)c1cccc([N+](=O)[O-])c1)Nc1cccc(Oc2ccccc2)c1`, for which the IC50 was > 40 µM (inactive).

For `O=C1Cc2ccccc2C(=O)N1c1ccc2c(c1)OCO2`, the negative-log IC50 (pIC50) is 4.42. As for `COc1cc(Cl)c(NC(=O)C2Cc3ccccc3N2C(=O)c2ccccc2)c(OC)c1` (configuration not stated), the IC50 was > 40 µM (inactive). Same read-out and setting: in the case of `CCOc1ccc(NC(=O)Cn2cc(C(=O)c3ccc(Cl)cc3)c(=O)c3cc(OC)ccc32)cc1` it was > 40 µM (inactive). With `COc1ccc(-n2c(=O)c3ccc(C(=O)NCCc4ccccc4)cc3n(CC(=O)NCCC3=CCCCC3)c2=O)cc1`, the IC50 was > 40 µM (inactive). The same measure, in the same setting: in the case of `O=C(COc1ccc(N2CC(C(=O)NCc3ccc4c(c3)OCO4)CC2=O)cc1)Nc1ccc(F)cc1` (configuration not stated) it was > 40 µM (inactive).

For `CSc1cccc(C(=O)Nc2ccc(-c3nc4ccccc4[nH]3)cc2)c1`, the IC50 is > 40 µM (inactive). The same measure, in the same setting: in the case of `Cc1ccc(Nc2nc(O)c(CC(=O)Nc3cccc(Cl)c3C)s2)cc1C` it was > 40 µM (inactive).

Take `CCOc1ccc2c(c1)c(=O)c(C(=O)c1ccc(F)cc1)cn2CC(=O)Nc1ccccc1`: the IC50 was > 40 µM (inactive). On the same count and under the same terms, to `NC(=O)C1(N2CCCCC2)CCN(c2ncc3c(=O)n(-c4ccccc4)c(=O)[nH]c3n2)CC1` belongs > 40 µM (inactive); to `CC1Oc2cc3c(-c4c(O)cc(O)c5c(O)c6c(cc45)OC(C)C(C)C6=O)c(O)cc(O)c3c(O)c2C(=O)C1C` (configuration not stated), > 40 µM (inactive). Still for that read-out and setting: in the case of `Cc1cccc(NC(=O)Nc2ccccc2OCc2cc(=O)n3cccc(C)c3n2)c1` it was > 40 µM (inactive). With `CCOC(=O)C1CCN(C(=O)c2ccc3c(c2)NC(=O)C2CCCN32)CC1` (configuration not stated), the pIC50 is 5.70. On to `Cc1cccc(OCC2=NN3C(=N)/C(=C\c4cc(C)n(-c5cccc(F)c5)c4C)C(=O)N=C3S2)c1`, for which the IC50 was > 40 µM (inactive).

On to `COc1ccc(NC(=O)Cn2c(C)cc(=O)n3nc(-c4cccc(C)c4)nc23)cc1`, for which the IC50 is > 40 µM (inactive). Same read-out and setting: to `Cc1ccc(-n2nnnc2-c2cnc3cc(Cl)ccc3c2N)cc1` belongs > 40 µM (inactive). Same read-out and setting: to `Cc1ccc(C2c3[nH]c4ccccc4c3C[C@H]3C(=O)N(c4ccc(C(=O)NCCc5ccccc5)cc4)C(=O)N23)cc1` (some centres not stated) belongs > 40 µM (inactive); to `O=C(CSc1nc2ccccc2[nH]1)Nc1ccc2c(c1)OCCO2`, > 40 µM (inactive). `O=c1c(S(=O)(=O)c2cc(F)cc(F)c2)c[nH]c2cc(Cl)ccc12`: the pIC50 was 4.59. On to `Cc1ccc(NC(=O)Cn2c(=O)n(CCC(=O)NCCc3ccccc3)c(=O)c3ccccc32)cc1C`, for which the IC50 is > 40 µM (inactive). On the same count and under the same terms, to `Cc1ccc(NCc2cc3c(-c4cccc(F)c4)nn(-c4ccccc4)c3[nH]c2=O)cc1C` belongs > 40 µM (inactive); to `NC(=O)C[C@H](NC(=O)[C@H](Cc1ccccc1)n1c(=O)[nH]c2ccccc2c1=O)C(=O)N[C@@H](Cc1ccccc1)C(=O)O`, > 40 µM (inactive); to `Cc1c(C)n(-c2ccccc2)c2ncn(CC(=O)NCc3cccc(F)c3)c(=O)c12`, > 40 µM (inactive). The same measure, in the same setting: in the case of `Cc1cc(=O)[nH]c(SCC(=O)c2cc(C)n(CCC3=CCCCC3)c2C)c1C#N` it was > 40 µM (inactive); in that of `Cc1cc(NS(=O)(=O)c2ccc(NC(=O)c3ccc(N4CCCC4)c([N+](=O)[O-])c3)cc2)no1`, > 40 µM (inactive). The same measure, in the same setting: in the case of `CCOc1ccccc1-c1cc(NC(=O)c2cc3ccc4cccnc4c3[nH]2)on1` it was > 40 µM (inactive); in that of `Cc1nc2c(nnn2C[C@H]2CCCN2C(=O)c2ccc(F)cc2)c(=O)[nH]1`, > 40 µM (inactive); in that of `CCc1cccc(NC(=O)Cc2nnc3ccc(-c4nc(C)no4)cn23)c1`, > 40 µM (inactive).

Consider `Cc1ccc(C2=Nc3ccccc3N(CC(=O)Nc3cccc(C)c3C)C(=O)C2)cc1C`, for which the IC50 is > 40 µM (inactive). The same measure, in the same setting: to `O=C(Cn1cnc(-c2ccccc2)cc1=O)Nc1ccc(Oc2ccccc2)cc1` belongs > 40 µM (inactive). The same measure, in the same setting: in the case of `Cc1ccc(CNC(=O)c2nc(-c3ccc4c(c3)OCC(=O)N4C)no2)cc1` it was > 40 µM (inactive); in that of `O=C(CCCc1nnc2c(=O)n(-c3cccc(F)c3)ccn12)Nc1ccccc1`, > 40 µM (inactive). Same read-out and setting: in the case of `COc1ccc(CNc2ccc(C(=O)OCc3ccccc3F)cc2S(=O)(=O)Nc2cccc(OC)c2)cc1` it was > 40 µM (inactive); in that of `COc1ccc(N/C=C/c2onc(C)c2[N+](=O)[O-])c(OC)c1`, > 40 µM (inactive); in that of `Cc1cc(NC(=O)CSc2ncc(-c3cccc([N+](=O)[O-])c3)n2-c2cccc(Cl)c2)no1`, > 40 µM (inactive). For the compound `Cc1ccc(Cn2cc(-c3noc(C(=O)Nc4cc(F)ccc4F)n3)nn2)cc1`, the negative logarithm of the IC50 (pIC50) was 4.66.

Take `CC(C)CCCCCCCCCCC(=O)N(C)[C@H](CO)C(=O)N[C@H](C)C(=O)NCC(=O)N(C)C1C(=O)N[C@@H](C)C(=O)NC(C(=O)O)Cc2ccc(O)c(c2)-c2cc1ccc2O` (some centres not stated): the IC50 was > 40 µM (inactive). Still for that read-out and setting: in the case of `CCc1ccc(NC(=O)CSc2nc3nccnc3c(=O)n2Cc2ccc(F)cc2)cc1` it was > 40 µM (inactive); in that of `COC(=O)c1ccc(C(=O)Nc2cc3ccccc3cc2NC(=O)c2ccc(C(=O)OC)cc2)cc1`, > 40 µM (inactive). Still for that read-out and setting: in the case of `COc1cccc(NC(=O)C2C3C=CC4(O3)C2C(=O)N(CCc2ccc(Cl)cc2)C4C(=O)NC2CCCCC2)c1` (configuration not stated) it was > 40 µM (inactive). For the compound `CC(C)(C)C(=O)[C@@H]1[C@@H](C(=O)c2ccc3c(c2)OCO3)[C@@]2(C(=O)Nc3ccccc32)[C@H]2c3ccccc3C=CN12`, the pIC50 was 5.15. The same measure, in the same setting: to `Cc1occ2c1C(=O)c1c(O)ccc(O)c1C2` belongs 6.18. Turning to `O=C(O)c1ccccc1C(=O)Nc1ccc(SC(C(=O)Nc2ccccc2Cl)c2ccccc2)cc1` (configuration not stated), the IC50 is > 40 µM (inactive). As to `CCc1ccc(NC(=O)Cn2c(=O)n(Cc3ccccc3)c(=O)c3nn(CC)cc32)cc1`, the IC50 was > 40 µM (inactive). Still for that read-out and setting: in the case of `Cc1ccc(Nc2nc(O)c(CC(=O)Nc3ccc(C)cc3C)s2)cc1` it was > 40 µM (inactive). On the same count and under the same terms, in the case of `COC(=O)c1ccc2c(=O)n(CCCCCC(=O)NCCc3ccc(OC)c(OC)c3)c(=O)[nH]c2c1` it was > 40 µM (inactive). For `Cn1c(=O)c2nc(-c3ccc(Cl)cc3)nnc2n(C)c1=O`, the pIC50 was 6.13.

Consider `Cc1ccc(NC(=O)c2ccc3nn(CC(=O)Nc4ccc(F)cc4F)c(=O)n3c2)cc1`, for which the IC50 was > 40 µM (inactive). As for `COCCCNC(=O)c1ccc(Cn2c(=O)c3ccccc3n(CC(=O)Nc3ccc(OC)cc3)c2=O)cc1`, the IC50 is > 40 µM (inactive).

Regarding `CC1CCc2c(sc(NC(=O)c3cccc(S(C)(=O)=O)c3)c2C(N)=O)C1` (configuration not stated), the IC50 was > 40 µM (inactive). With `O=C(Nc1cc(F)c2nc(N3CCOCC3)ccc2c1)C1CC1`, the pIC50 is 4.47. Turning to `O=C(Nc1ccccc1F)c1nc(-c2cn(-c3ccc(F)cc3)nn2)no1`, the pIC50 was 4.65. As to `Cc1ccc2c(c1)N=C(c1ccc([N+](=O)[O-])cc1)CO2`, the IC50 was > 40 µM (inactive). As for `Cc1cc(C)c(NC(=O)Cc2sc(Nc3ccc(C)c(C)c3)nc2O)c(C)c1`, the IC50 is > 40 µM (inactive). The same measure, in the same setting: to `COc1ccc(-c2nc3n(n2)C(CC(=O)Nc2cccc4ccccc24)C(=O)N3)cc1` (configuration not stated) belongs > 40 µM (inactive).

As to `CC1=CC(=O)C(C2=C(O)C(=O)C(C)=CC2=O)=C(O)C1=O`, the pIC50 was 5.04. For `O=S1(=O)CCN(Cc2cccnc2)c2c(F)nc(N3CCOCC3)c(F)c21`, the IC50 was > 40 µM (inactive). Still for that read-out and setting: in the case of `COc1ccc(NC(=O)c2cc(-c3cccnc3)n[nH]2)cc1Cl` it was > 40 µM (inactive); in that of `CCOc1ccccc1NC(=O)Cn1c(=O)n(CCC(=O)NCCc2ccc(OC)c(OC)c2)c(=O)c2ccccc21`, > 40 µM (inactive).

Broadly, the IC50 is the concentration that gives 50% inhibition. For orientation: pIC50 means the IC50 on a negative log10 scale, so that one unit is a factor of ten.
